Measured values from publication PMC9186412, “Rational Framework for the Design of Trp- and Arg-Rich Peptide Antibiotics Against Multidrug-Resistant Bacteria” (Frontiers in Microbiology, 2022).
Values after ≈ are worked out from the molar mass of the structure shown. Read-outs that look alike come from different tables or passages of the source.

What was measured:
MDR strain PA239 = experiment: Propidium iodide incorporation by flow cytometry; format: cell-based, Pseudomonas aeruginosa; details: 2 μM, treated for 3 h
Text: To examine whether the selected peptides kill their bacterial target mainly by membrane permeabilization, we used PI incorporation by the MDR strain PA239 (5 × 10^8 CFU/mL) quantitated by flow cytometry (Novocyte, United States) or visualized by video imaging using the digital microscope EVOS M7000 (Thermo Fisher Scientific, United States) in bright field or red fluorescence channel. In the flow cytometry experiments ([Di et al., 2020]), bacterial cells were either untreated or treated with different peptide E35 concentrations in MHB2 for 1 h at 37°C. We washed the bacteria-peptide mixture with PBS using an Eppendorf centrifuge at top speed for 7 min and incubated with PI in the dark for 15 min at room temperature. Tobramycin was used as a negative control with a 3-h long incubation. For video imaging, the broth medium was reduced to 20% in PBS (treated or untreated) to decrease the rate of cell division and PI incorporation assessed over time. Video images were recorded in real time using the 40× objective either in bright field or red fluorescence channel.

A. baumannii = experiment: microbe, parasite or virus in culture; format: cell-based, Acinetobacter baumannii; details: Acinetobacter baumannii, 18 h, MHB2, 18 h, 37°C
Outline: (§1)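 Clinical isolates in log phase were exposed to peptides in cation-adjusted MHB for 18 h at 37 °C, with growth followed hourly at A570 to give the MIC by a modified CLSI method. For MBC, bacteria were treated 3 h in 15% FBS/25% MHB/60% PBS and then plated; MBC was the concentration giving complete killing.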

P. aeruginosa = experiment: microbe, parasite or virus in culture; format: cell-based, Pseudomonas aeruginosa; details: Pseudomonas aeruginosa, MHB2, 18 h, 37°C
Protocol: Bacterial clinical isolates, used for initial screening and in previous studies ([Deslouches et al., 2013]; [Lin et al., 2018]), were anonymously provided by the clinical microbiology laboratory of the University of Pittsburgh medical Center. The panel used for secondary screening was from [CDC (2013)] (Supplementary Table 3), with resistance profiles data. Bacteria are stored in lock-secured –80°C freezer and typically retrieved by obtaining single colonies on agar plates prior for subsequent liquid broth cultures. Suspensions of test bacteria were prepared from log phase of growth by diluting overnight cultures at 1:100 with fresh cation-adjusted MHB (MHB2, Millipore Sigma, United States) and incubating for additional 3–4 h. Bacteria were spun at 3,000 × g for 10 min and the pellet resuspended in test condition media (Millipore Sigma, United States) to determine bacterial turbidity using a Den-1B densitometer (Grant Instruments, United States) at 0.5 McFarland (unit of bacterial density) corresponding to […].
To examine antibacterial activity, we used minor modifications of a standard growth inhibition assay endorsed by the Clinical and Laboratory Standards Institute (CLSI), as previously described ([Deslouches et al., 2013]). Bacteria were incubated with each of the indicated peptides in MHB2. The bacterial cells were kept in an incubator for 18 h at 37°C, which is linked to a robotic system that feeds a plate reader every hour with one of 8 × 96-well plates. This set-up allows the collection of growth kinetic data at A 570 (absorbance at 570 nm) to examine growth inhibition in real time (BioTek Instruments, United States). […] The assays are typically repeated a second time. If the MIC is different, a third experimental trial is performed to confirm the MIC. To assess bactericidal properties of the peptide, the assay was modified by using 15% fetal bovine serum (FBS, for a more physiologically relevant test condition) mixed with 25% MHB2 and 60% PBS. Bacterial cells (colony forming unit/mL or CFU/mL) were enumerated after incubating treated bacteria for 3 h and plating serially diluted samples on broth agar medium at 37°C overnight. Minimum bactericidal concentration (MBC) was determined as the peptide concentration at which complete bacterial killing was observed. […] Data were analyzed using GraphPad Prism software.

K. pneumoniae = experiment: microbe, parasite or virus in culture; format: cell-based, Klebsiella pneumoniae; details: Klebsiella pneumoniae, 18 h, MHB2, 18 h, 37°C
Outline: as §1

Enterobacter spp = experiment: microbe, parasite or virus in culture; format: cell-based, Enterobacter spp (aerogenes, cloacae); details: Enterobacter, 18 h, UPMC, MHB2, 18 h, 37°C
Outline: as §1

E. coli = experiment: microbe, parasite or virus in culture; format: cell-based, Escherichia coli; details: Escherichia coli, 18 h, MHB2, 18 h, 37°C
Outline: as §1

CDC AR isolates = system: CDC AR isolates; design: key: S (green), susceptible; I (blue), intermediate; R (red), resistant; details: data provided by the CDC, ref CDC, cited from earlier work
Text: Supplement Table_3.XLSX, sheet "CDC AR isolates profiles" | column: G(-) strains

MIC (A. baumannii; strain AB-A2, UPMC clinical strain, A570, confirmed by 2nd or 3rd trial): 0.5 µM (≈ 0.234 µg/mL)
MIC (A. baumannii; strain AB-A3, UPMC): 16 µM (≈ 7.48 µg/mL)
MIC (A. baumannii; strain AB-F8, UPMC): > 16 µM
MIC (A. baumannii; strain AB-F9, UPMC): 2 µM (≈ 0.935 µg/mL)
MIC (P. aeruginosa; 18 h, strain PA01): 1 µM (≈ 0.468 µg/mL)
MIC (P. aeruginosa; 18 h, strain PA97-5, UPMC): > 16 µM
MIC (P. aeruginosa; 18 h, strain PA129-5, UPMC): 16 µM (≈ 7.48 µg/mL)
MIC (P. aeruginosa; PA14, 18 h, strain PA14): 0.5 µM (≈ 0.234 µg/mL)
MIC (K. pneumoniae; strain KPA5 (colistin-resistant), UPMC): > 16 µM
MIC (K. pneumoniae; strain KPB3, UPMC): > 16 µM
MIC (Enterobacter spp; strain EA518 (aerogenes)): > 16 µM
MIC (Enterobacter spp; strain EA596 (aerogenes)): > 16 µM
MIC (Enterobacter spp; strain EC470 (cloacae)): 4 µM (≈ 1.87 µg/mL)
MIC (Enterobacter spp; strain EC560 (cloacae)): > 16 µM
MIC (E. coli; strain YDC337, UPMC): > 16 µM
MIC (E. coli; strain YDC748, UPMC): 16 µM (≈ 7.48 µg/mL)
SMILES: NC[C@H]1O[C@H](O[C@H]2[C@H](O)[C@@H](O[C@H]3O[C@H](CO)[C@@H](O)[C@H](N)[C@H]3O)[C@H](N)C[C@@H]2N)[C@H](N)C[C@@H]1O [Tobramycin, reference compound]
PI incorporation (MDR strain PA239): 29%
Antibiotic susceptibility profile (CDC AR isolates; Acinetobacter baumannii AB273, CDC AR isolate): R
Antibiotic susceptibility profile (CDC AR isolates; Acinetobacter baumannii AB274, CDC AR isolate): S
Antibiotic susceptibility profile (CDC AR isolates; Acinetobacter baumannii AB275, CDC AR isolate): R
Antibiotic susceptibility profile (CDC AR isolates; Acinetobacter baumannii AB276, CDC AR isolate): R
Antibiotic susceptibility profile (CDC AR isolates; Enterobacter cloacae E62, CDC AR isolate): R
Antibiotic susceptibility profile (CDC AR isolates; Escherichia coli EC541, CDC AR isolate): R
Antibiotic susceptibility profile (CDC AR isolates; Escherichia coli EC543, CDC AR isolate): R
Antibiotic susceptibility profile (CDC AR isolates; Escherichia coli EC544, CDC AR isolate): R
Antibiotic susceptibility profile (CDC AR isolates; Escherichia coli EC549, CDC AR isolate): R
Antibiotic susceptibility profile (CDC AR isolates; Klebsiella pneumoniae KP542, CDC AR isolate): R
Antibiotic susceptibility profile (CDC AR isolates; Klebsiella pneumoniae KP548, CDC AR isolate): S
Antibiotic susceptibility profile (CDC AR isolates; Klebsiella pneumoniae KP550, CDC AR isolate): R
Antibiotic susceptibility profile (CDC AR isolates; Klebsiella pneumoniae KP552, CDC AR isolate): R
Antibiotic susceptibility profile (CDC AR isolates; Pseudomonas aeruginosa PA229, CDC AR isolate): S
Antibiotic susceptibility profile (CDC AR isolates; Pseudomonas aeruginosa PA230, CDC AR isolate): R
Antibiotic susceptibility profile (CDC AR isolates; Pseudomonas aeruginosa PA231, CDC AR isolate): R
Antibiotic susceptibility profile (CDC AR isolates; Pseudomonas aeruginosa PA232, CDC AR isolate): R
Antibiotic susceptibility profile (CDC AR isolates; Pseudomonas aeruginosa PA239, CDC AR isolate): R
